Earlier results, collected in publication PMC3779694 (Hepatology (Baltimore, Md.), 2011).

Test system: subjects with a variety of chronic liver diseases, mostly chronic hepatitis C
Settings: five subjects with NASH, 14-day regimen; cited from earlier work

SMILES: C[C@H](NC(=O)C(=O)Nc1ccccc1C(C)(C)C)C(=O)N[C@@H](CC(=O)O)C(=O)COc1c(F)c(F)cc(F)c1F [IDN-6556]
- ALT reduction in subjects with NASH: 59%
